# Data published in US4368203A, “Antibiotics and derivatives thereof having β-lactamase inhibitory activity and production thereof” (priority 1977, dated 1983).
# What was measured:
# [1] = molecular target: T1, Exo-penicillinase of Bacillus licheniformis 749/C (ATCC 25972) (Bacillus licheniformis, UniProt P00808); experiment: Susceptibility to beta-lactamase as enzymic substrate; type: biochemical; conditions: 15 minutes, 30° C., PS-6 3.3 μg/ml, optical density at 301 nm
# T1 construct: made in house; host or cells: Bacillus licheniformis 749/C (ATCC 25972)
# T1 sequence (P00808 43-307): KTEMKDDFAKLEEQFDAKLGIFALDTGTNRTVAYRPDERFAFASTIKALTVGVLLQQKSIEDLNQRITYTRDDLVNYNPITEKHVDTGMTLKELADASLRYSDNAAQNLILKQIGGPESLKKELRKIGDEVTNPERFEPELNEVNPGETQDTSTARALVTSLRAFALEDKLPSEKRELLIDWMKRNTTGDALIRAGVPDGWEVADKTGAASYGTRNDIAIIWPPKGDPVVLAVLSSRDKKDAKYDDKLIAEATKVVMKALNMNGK
# Protocol: (a) Exo-penicillinase of Bacillus licheniformis 749/C (ATCC 25972). Purified by cephalexin-Sepharose 4B (Pharmacia Fine Chemicals AB) affinity column chromatography. The potency of this enzyme preparation was 16,600 units/ml. when the hydrolysis of potassium penicillin G was measured by iodometry at 30° C. in M/10, pH 6.8, phosphate buffer. One unit of penicillinase means the amount of enzyme that can hydrolyze 1 micromole of penicillin G for 60 minutes at 30° C. with a pH 6.8.
# Time course of the hydrolysis was traced at 30° C. by determining the decrease in optical density at 301 nm which corresponds specifically to the concentration of antibiotic PS-6. As described in Japanese Patent Application No. 94651/77, the antibiotic PS-5 sodium salt preparation gave a E1 cm^1% value of 267.5 at the λmax of 301 nm. If this preparation contained no water of crystallization, its epsilon value would be 8560.
# As 5% of the initial optical density of antibiotic PS-5 at 301 nm remained even after the complete decomposition with hydroxylamine or beta-lactamase, the differential optical density of this substrate at 301 nm was supposed to be Δε=8132. This was supposed to be applicable to the antibiotic PS-6, and the following calculation was carried out.
# (a) Exo-penicillinase of Bacillus licheniformis 749/C.
# Proteus mirabilis P-6 = experiment: MIC, broth dilution method; conditions: P6, 20 h, read-out: Minimum inhibitory concentration
# [2] = test system: Staphylococcus aureus Bx-1633; experiment: MIC, broth dilution method; conditions: BX1633, 20 h, read-out: Minimum inhibitory concentration
# Proteus sp. P-22 = experiment: MIC, broth dilution method; conditions: 20 h, read-out: Minimum inhibitory concentration
structure (smiles),measurement,setting,value
CC(=O)NCCSC1=C(C(=O)O)N2C(=O)C(C(C)C)C2C1 (stereo not shown) [Antibiotic PS-6],Hydrolysis by the beta-lactamase,[1],without a substantial hydrolysis
same,MIC,Proteus mirabilis P-6,12.5 µg/mL
same,MIC,[2],0.33 µg/mL
same,MIC,Proteus sp. P-22,12.5 µg/mL
